One assay has as its system TNF-α production. Briefly: Inhibitory activity against cytokine (TNF-α) production in LPS-stimulated RAW264.7 cells. The settings on record: Mus musculus, RAW264.7, 15 h, 1 μM test compound, LPS 10 ng/mL. The class given is cell-based, mouse. Put shortly:
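Mouse RAW264.7 macrophages (5,000 cells/well) stimulated with 10 ng/mL LPS (final) and treated with test compound at 1 μM final for 15 h at 37 °C. Supernatant mouse TNF-α measured by ELISA; % inhibition = 100−(A−B)/(C−B)×100, using unstimulated and LPS-only controls.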

For assay [1], the system named is human colon cancer cells COL-2-JCK. Briefly: Inhibition of colony forming activity in human colon cancer cells. The class given is cell-based. The following applies: Homo sapiens, 240 h; 1 μM test compound; 10 days; sum of colony areas vs control; read-out: Inhibition Rate (%) against the colony forming activity. The method, boiled down:
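COL-2-JCK cells seeded at 300 cells/well and grown 10 days at 37 °C, 5% CO2 with compound at 1 μM final (0.1% DMSO). Colonies stained with crystal violet in formalin; inhibition % = (1 − treated/control colony area)×100.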

Among the data in patent US20030134859A1 (SANKYO COMPANY, LIMITED, priority 2000, published 2003) are inhibition values, retold here.

SMILES strings stand for the structures.

`Cc1nc(NC(=O)c2cc([N+](=O)[O-])ccc2Cl)sc1C` [Example 47]: the inhibition at 1 µM amounted to 16.7% with TNF-α production and 18% in assay [1].

`Cc1cccc(-c2csc(NC(=O)c3cc([N+](=O)[O-])ccc3Cl)n2)c1` [Example 40, N-[4-(3-Methylphenyl)thiazol-2-yl)-(2-chloro-5-nitrophenyl)carboxamide]: the values for the inhibition at 1 µM (in the assay with TNF-α production; in assay [1]) were 27.1% and 35%, respectively.

As to `O=C(Nc1nc(-c2cccc3ccccc23)cs1)c1cc([N+](=O)[O-])ccc1Cl` [Example 41, N-[4-(1-Naphthyl)thiazol-2-yl]-(2-chloro-5-nitrophenyl)carboxamide], the inhibition at 1 µM in the assay on TNF-α production amounted to 30%; in assay [1], 55%.

`CCc1ccc(-c2csc(NC(=O)c3cc([N+](=O)[O-])ccc3Cl)n2)cc1` [Example 44, N-[4-(4-Ethylphenyl)thiazol-2-yl]-(2-chloro-5-nitrophenyl)carboxamide]: the inhibition at 1 µM in the assay on TNF-α production was 18%; in assay [1] it was 35%.

In the case of `Cc1ccccc1-c1csc(NC(=O)c2cc([N+](=O)[O-])ccc2Cl)n1` [Example 39, N-[4-(2-Methylphenyl)thiazol-2-yl]-(2-chloro-5-nitrophenyl)carboxamide], the inhibition at 1 µM in the assay on TNF-α production was determined as 29.8%; in assay [1], 48%.

Usually inhibition stands for the percentage by which the read-out fell short of the control.
